These results are taken from article PMC11125953 (Viruses, 2024).

A short description of data set [1]: Cytotoxicity by CellTiter-Glo. As to conditions: horse. (In general: ATP-based viability assays read luminescence as a measure of living cells.)
For data set [2], the system named is EHV-4 405/76 reference strain. As to the kind of experiment: microbe, parasite or virus in culture.
Data set [3] has as its system EHV-4 405/76 reference strain. Briefly: RTCA. In kind it is cell-based, Equid herpesvirus 4. The following applies: area under normalized Cell Index curves, 0-120 hpi, EHV-4-infected E. Derm cells.
Data set [4] has as its system EHV-4 405/76 reference strain. As to conditions: for CIT50 increase: RTCA, EHV-4-infected E. Derm cells; for Si (CC50/EC50, RTCA): ratio of CC50 to EC50 obtained by RTCA.
The test system of data set [5] is EHV-4 405/76 reference strain. As to conditions: ratio of CC50 to EC50 obtained by qPCR. (In general: Real-time PCR tracks product formation cycle by cycle.)
The test system of data set [6] is EHV-4 405/76 reference strain. As to the kind of experiment: microbe, parasite or virus in culture. This is another data set of the same source.
Data set [7] is described as follows: Cytotoxicity by impedance using RTCA. As to conditions: horse, E. Derm cells.
For data set [8], the system named is mice. As to conditions: mouse, in vivo; cited from earlier work.
Data set [9] in a line: in vitro. As to conditions: horse.
A short description of data set [10]: in vitro. The following applies: horse. This is another data set of the same source.
For data set [11] the following is noted: in vivo; cited from earlier work.
The mark [12] stands for this setting: Equid alphaherpesvirus 4, read-out: qPCR EC50 (µM ± S.D).
The mark [13] stands for this setting: Equid alphaherpesvirus 4, read-out: qPCR EC50 (µg/mL ± S.D).
The mark [14] stands for this setting: Equid alphaherpesvirus 4, read-out: RTCA EC50 (µM ± S.D).
The mark [15] stands for this setting: Equid alphaherpesvirus 4, read-out: RTCA EC50 (µg/mL ± S.D).

Structures can show the parent of a compound that is named as a salt. Where two headings read alike, the source gives them in different places.

Consider `C[C@@]1(CO)[C@H](O)CC[C@@]2(C)[C@H]1CC[C@H]1C[C@@H]3C[C@@]12CC[C@]3(O)CO` [Aphidicolin], for which the CC50 in data set [1] and in data set [7] was over 50 µM each time. Moreover, the figures for the EC50 in data set [2] (setting [12]), in [2] (setting [13]) and in data set [6] (setting [14]) were 0.31 ± 0.09 µM, 0.11 ± 0.03 µg/mL and 2.16 ± 0.18 µM, respectively. Also, the values for the AUCn in data set [3] (0.4 µM), in [3] (2 µM) and in data set [3] (10 µM) were 27.44, 81.72 and 106.29, respectively. The values for the CIT50 increase in data set [4] (1.25 µM) and in [4] (2.5 µM) were 7.48 ± 2.69 h and 22.43 ± 4.89 h, respectively. Moreover, the “Si (CC50/EC50, RTCA)” value in [4] is on record as over 23.15. Besides, in [5], the “SI (CC50 CellTiter-Glo/EC50 qPCR)” value was over 161.29.

For the molecule `Cc1nc(N(C)C(=O)Cc2ccc(-c3ccccn3)cc2)sc1S(N)(=O)=O` [BAY 57-1293, pritelivir], the CC50 in data set [1] (E. Derm cells) and in data set [7] was over 50 µM in each case. For the same molecule, the EC50 is 3.31 ± 0.89 µM in data set [2] (setting [12]), 1.33 ± 0.36 µg/mL in data set [2] (setting [13]), 17.8 ± 1.2 µM in data set [6] (setting [14]) and 7.15 ± 0.48 µg/mL in [6] (setting [15]). Also, the AUCn is listed as 27.43 in data set [3] (0.4 µM), 27.62 in [3] (2 µM), 44.70 in data set [3] (10 µM) and 145.59 in data set [3] (50 µM). The “Si (CC50/EC50, RTCA)” value in [4] was over 2.81. In [5], the “SI (CC50 CellTiter-Glo/EC50 qPCR)” value is given as over 15.11.

Consider `Nc1ccn(C[C@@H](CO)OCP(=O)(O)O)c(=O)n1` [Cidofovir], for which the CC50 in [1] (E. Derm cells) and in [7] was over 50 µM in each case. Further, the EC50 in [2] (setting [12]) turned out to be 7.99 ± 3.38 µM; in data set [2] (setting [13]), 2.23 ± 0.94 µg/mL; in [6] (setting [14]), 12.6 ± 4.32 µM; in data set [6] (setting [15]), 3.5 ± 1.21 µg/mL. For the same molecule, the AUCn was 38.54 in data set [3] (0.4 µM), 42.07 in data set [3] (2 µM), 40.56 in data set [3] (10 µM) and 59.40 in data set [3] (50 µM). Further, the “Si (CC50/EC50, RTCA)” value in data set [4] is on record as over 3.98. In data set [5], the “SI (CC50 CellTiter-Glo/EC50 qPCR)” value was over 6.26.

As to `Nc1ncn([C@H]2C[C@H](O)[C@@H](CO)O2)c(=O)n1` [Decitabine], the CC50 in [1] (E. Derm cells) and in [7] was over 50 µM each time. Further, the EC50 in data set [2] (setting [12]) stood at 0.28 ± 0.05 µM; in data set [2] (setting [13]), 0.06 ± 0.01 µg/mL; in data set [6] (setting [14]) it was 1.16 ± 0.31 µM; in data set [6] (setting [15]), 0.26 ± 0.07 µg/mL. In addition, the AUCn in [3] (0.4 µM) was determined as 73.51; in data set [3] (2 µM), 93.80; in data set [3] (10 µM) it was 120.54; in [3] (50 µM), 128.21. Besides, the CIT50 increase in data set [4] (0.78 µM) is 25.66 ± 10.74 h; in data set [4] (1.56 µM), 30.13 ± 15.34 h. Also, the “Si (CC50/EC50, RTCA)” value in [4] is recorded as over 43.10. Also, the toxic concentration in [8] was about 25 µM. Moreover, in [5], the “SI (CC50 CellTiter-Glo/EC50 qPCR)” value is recorded as over 178.57.

Consider `Nc1nc(O)c2ncn(COC(CO)CO)c2n1` [Ganciclovir], for which the EC50 came out at 1.32 ± 1.06 µM in data set [2] (setting [12]), 0.34 ± 0.27 µg/mL in data set [2] (setting [13]), 4.05 ± 0.22 µM in [6] (setting [14]) and 1.03 ± 0.06 µg/mL in [6] (setting [15]). In addition, the AUCn amounted to 57.9 in data set [3] (0.4 µM), 74.3 in data set [3] (2 µM), 116.3 in data set [3] (10 µM) and 138.7 in data set [3] (50 µM). Further, the CC50 in data set [9] and in data set [10] was over 50 µM in each case. In data set [4], the “Si (CC50/EC50, RTCA)” value is reported as over 12.35. Besides, in [5], the “SI (CC50 CellTiter-Glo/EC50 qPCR)” value was over 37.88.

In the case of `O=c1[nH]c(=O)n([C@H]2C[C@H](O)[C@@H](CO)O2)cc1I` [Idoxuridine], the EC50 in [2] (setting [12]) worked out at 7.49 ± 1 µM; in data set [2] (setting [13]) it was 2.65 ± 0.35 µg/mL; in data set [6] (setting [14]), 33.8 ± 15.8 µM; in data set [6] (setting [15]), 11.9 ± 5.61 µg/mL. The AUCn stood at 36.8 in [3] (0.4 µM), 30.6 in data set [3] (2 µM), 63.0 in [3] (10 µM) and 143.7 in data set [3] (50 µM). For the same molecule, the CC50 in data set [9] and in data set [10] was over 50 µM each time. Besides, the “Si (CC50/EC50, RTCA)” value in data set [4] is on record as over 1.48. Besides, the “SI (CC50 CellTiter-Glo/EC50 qPCR)” value in data set [5] is listed as over 6.68.

In the case of `CC(C)[C@H](N)C(=O)OCC(CO)OCn1cnc2c(=O)nc(N)[nH]c21` (stereo partly shown) [Valganciclovir hydrochloride], the EC50 in [2] (setting [12]) was 3.6 ± 1.02 µM; in [2] (setting [13]), 1.28 ± 0.36 µg/mL; in data set [6] (setting [14]), 9.55 ± 2.81 µM; in data set [6] (setting [15]), 3.38 ± 1 µg/mL. Further, the AUCn in data set [3] (0.4 µM) turned out to be 33.79; in [3] (2 µM), 42.41; in [3] (10 µM) it was 75.80; in [3] (50 µM), 145.98. Further, the CC50 in [9] and in data set [10] was over 50 µM each time. Further, in data set [4], the “Si (CC50/EC50, RTCA)” value is reported as over 5.24. Besides, in [11], the “improvement of the bioavailability of ganciclovir by oral valganciclovir” value is given as 41 ± 20%. Further, the “SI (CC50 CellTiter-Glo/EC50 qPCR)” value in data set [5] is reported as over 13.89.
